Results reported in ChEMBL document CHEMBL1129474, “Quinazoline antifolates thymidylate synthase inhibitors: lipophilic analogues with modification to the C2-methyl substituent” (J Med Chem, 1996).

What was measured:
L1210 = experiment: In vitro inhibitory activity against L1210 cell growth; format: functional, cell-based; details: Mus musculus
Thymidylate synthase = Thymidylate synthase (Mus musculus, UniProt P07607); experiment: In vitro inhibitory activity against thymidylate synthase partially purified from L1210 mouse leukemia cells; format: cell-based
Sequence of Thymidylate synthase (P07607 whole entry): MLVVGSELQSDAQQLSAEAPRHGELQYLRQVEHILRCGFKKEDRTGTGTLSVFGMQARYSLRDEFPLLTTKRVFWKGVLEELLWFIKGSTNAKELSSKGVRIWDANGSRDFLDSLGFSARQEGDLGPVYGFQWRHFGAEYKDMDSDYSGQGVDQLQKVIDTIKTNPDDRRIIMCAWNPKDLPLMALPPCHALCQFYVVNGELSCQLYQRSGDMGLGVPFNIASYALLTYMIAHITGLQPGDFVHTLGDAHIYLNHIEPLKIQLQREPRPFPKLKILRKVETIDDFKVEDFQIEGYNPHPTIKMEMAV

[1] = Relative resistant ratio of compound as L1210:1565 IC50 over L1210 IC50; format: functional

| IC50 (L1210) | IC50 (Thymidylate synthase) | Compound | Ratio [1] |
| --- | --- | --- | --- |
| 4800 nM | 300 nM | C#CCN(Cc1ccc2nc(CO)nc(O)c2c1)c1ccc(C(=O)NCc2cccc([N+](=O)[O-])c2)cc1 |  |
| 6700 nM | 640 nM | C#CCN(Cc1ccc2nc(COCCOC)nc(O)c2c1)c1ccc(C(=O)NCc2cccc([N+](=O)[O-])c2)cc1 |  |
| 580 nM | 110 nM | C#CCN(Cc1cc2c(O)nc(CN3CCN(C)CC3)nc2cc1C)c1ccc(C(=O)NCc2cccc([N+](=O)[O-])c2)c(F)c1 | 1.1 |
| 700 nM | 72 nM | C#CCN(Cc1cc2c(O)nc(CO)nc2cc1C)c1ccc(C(=O)NCc2cccc([N+](=O)[O-])c2)c(F)c1 | 0.17 |
| > 20000 nM | 28 nM | Cc1cc2nc(CN3CCN(C)CC3)nc(O)c2cc1CN(C)c1ccc(C(=O)NC(CCC(=O)O)C(=O)O)c(F)c1 (configuration not stated) |  |
| 640 nM |  | C#CCN(Cc1cc2c(O)nc(CSc3ncccn3)nc2cc1C)c1ccc(C(=O)NCc2cccc([N+](=O)[O-])c2)c(F)c1 | 0.65 |
| 7800 nM | 4200 nM | C#CCN(Cc1ccc2nc(CNC)nc(O)c2c1)c1ccc(C(=O)NCc2cccc([N+](=O)[O-])c2)cc1 |  |
| 2400 nM | 1210 nM | C#CCN(Cc1ccc2nc(CCl)nc(O)c2c1)c1ccc(C(=O)NCc2cccc([N+](=O)[O-])c2)cc1 |  |
| > 20000 nM | > 1700 nM | C#CCN(Cc1ccc2nc(CN)nc(O)c2c1)c1ccc(C(=O)NCc2cccc([N+](=O)[O-])c2)cc1 |  |
| 11000 nM | 380 nM | C#CCN(Cc1ccc2nc(CC#N)nc(O)c2c1)c1ccc(C(=O)NCc2cccc([N+](=O)[O-])c2)cc1 |  |
| 260 nM |  | C#CCN(Cc1cc2c(O)nc(C)nc2cc1C)c1ccc(C(=O)NCc2cccc([N+](=O)[O-])c2)c(F)c1 | 1 |
|  | 140 nM | C#CCN(Cc1cc2c(=O)[nH]c(CN(C)C)nc2cc1C)c1ccc(C(=O)NCc2cccc([N+](=O)[O-])c2)c(F)c1 |  |
| 100000 nM |  | C#CCN(Cc1ccc2nc(CSc3ncccn3)nc(O)c2c1)c1ccc(C(=O)NC(CCC(=O)O)C(=O)O)cc1 (configuration not stated) |  |
|  | 110 nM | C#CCN(Cc1cc2c(=O)[nH]c(CSc3ncccn3)nc2cc1C)c1ccc(C(=O)NCc2cccc([N+](=O)[O-])c2)c(F)c1 |  |
| 5000 nM | 820 nM | C#CCN(Cc1ccc2nc(CN(C)CCN(C)C)nc(O)c2c1)c1ccc(C(=O)NCc2cccc([N+](=O)[O-])c2)cc1 |  |
| 76 nM | 56 nM | Cc1nc2cc(C)c(CN(C)c3ccc(C(=O)NCc4cccc([N+](=O)[O-])c4)c(F)c3)cc2c(=O)[nH]1 |  |
| 2700 nM | 620 nM | C#CCN(Cc1ccc2nc(CN(C)C)nc(O)c2c1)c1ccc(C(=O)NCc2cccc([N+](=O)[O-])c2)cc1 |  |
| 150 nM |  | C#CCN(Cc1ccc2nc(C)nc(O)c2c1)c1ccc(C(=O)NC(CCC(=O)O)C(=O)O)cc1 (configuration not stated) |  |
| 580 nM | 84 nM | Cc1cc2nc(CN(C)C)nc(O)c2cc1CN(C)c1ccc(C(=O)NCc2cccc([N+](=O)[O-])c2)c(F)c1 |  |
| 700 nM | 80 nM | Cc1cc2nc(CO)nc(O)c2cc1CN(C)c1ccc(C(=O)NCc2cccc([N+](=O)[O-])c2)c(F)c1 |  |
| 950 nM | 200 nM | C#CCN(Cc1cc2c(O)nc(CN(C)CCN(C)C)nc2cc1C)c1ccc(C(=O)NCc2cccc([N+](=O)[O-])c2)c(F)c1 |  |
| > 20000 nM | 180 nM | C#CCN(Cc1ccc2nc(CNS(C)(=O)=O)nc(O)c2c1)c1ccc(C(=O)NCc2cccc([N+](=O)[O-])c2)cc1 |  |
| 7800 nM | 160 nM | C#CCN(Cc1cc2c(O)nc(CN(CCO)CCO)nc2cc1C)c1ccc(C(=O)NCc2cccc([N+](=O)[O-])c2)c(F)c1 |  |
| 2200 nM | 840 nM | C#CCN(Cc1ccc2nc(CSc3nccc(N)n3)nc(O)c2c1)c1ccc(C(=O)NCc2cccc([N+](=O)[O-])c2)cc1 |  |
| 12000 nM | 3300 nM | C#CCN(Cc1ccc2nc(CSc3nccc(O)n3)nc(O)c2c1)c1ccc(C(=O)NCc2cccc([N+](=O)[O-])c2)cc1 |  |
| 14000 nM | 1040 nM | C#CCN(Cc1ccc2nc(CSc3nc(N)cc(O)n3)nc(O)c2c1)c1ccc(C(=O)NCc2cccc([N+](=O)[O-])c2)cc1 |  |
| 680 nM |  | C#CCN(Cc1cc2c(O)nc(CN(C)C)nc2cc1C)c1ccc(C(=O)NCc2cccc([N+](=O)[O-])c2)c(F)c1 | 0.76 |
| 1900 nM | 380 nM | C#CCN(Cc1ccc2nc(CN3CCOCC3)nc(O)c2c1)c1ccc(C(=O)NCc2cccc([N+](=O)[O-])c2)cc1 |  |
| 1400 nM |  | C#CCN(Cc1ccc2nc(C)nc(O)c2c1)c1ccc(C(=O)NCc2cccc([N+](=O)[O-])c2)cc1 | 0.3 |

| Compound | IC50 (L1210) | IC50 (Thymidylate synthase) | Ratio [1] |
| --- | --- | --- | --- |
| C#CCN(Cc1ccc2nc(CSc3ncccn3)nc(O)c2c1)c1ccc(C(=O)NCc2cccc([N+](=O)[O-])c2)cc1 | 2000 nM | 480 nM |  |
| C#CCN(Cc1cc2c(O)nc(CN3CCOCC3)nc2cc1C)c1ccc(C(=O)NCc2cccc([N+](=O)[O-])c2)c(F)c1 | 340 nM | 100 nM | 1.1 |
| C#CCN(Cc1ccc2nc(C)nc(O)c2c1)c1ccc(C(=O)NC(Cc2cccc([N+](=O)[O-])c2)C(=O)O)cc1 (configuration not stated) | 9000 nM | 10 nM |  |
| C#CCN(Cc1ccc2nc(CN3CCN(C)CC3)nc(O)c2c1)c1ccc(C(=O)NCc2cccc([N+](=O)[O-])c2)cc1 | 5300 nM | 900 nM |  |
| C#CCN(Cc1ccc2nc(CN3CCC(O)C3)nc(O)c2c1)c1ccc(C(=O)NCc2cccc([N+](=O)[O-])c2)cc1 (configuration not stated) | 9000 nM | 600 nM |  |
